Measurements published in patent US7700590B2, “Antibacterial agents” (University of New Orleans Research and Technology …, priority 2006, dated 2010).
In brackets after ≈: the same amount, converted by molar mass.

How the values were obtained:
Type in all cases: cell-based
[1] = test system: Bacillus subtilis PY79; assay: Antibacterial growth inhibition assay (serial dilution, colorimeter at 600 nm), B. subtilis PY79; design: key to MIC, concentration at 50% inhibition of bacteria growth, B. subtilis PY79: N stands for no inhibition; details: for MIC, concentration at 50% inhibition of bacteria growth, B. subtilis PY79: 50% growth inhibition, serial dilution 238-0.46 μg/ml
Method: (§1) The antibacterial activities of the compounds synthesized as described above were evaluated by assay against several strains of Gram positive bacteria from the American Type Culture Collection (ATCC), Staphylococcus aureus 29213, Staphylococcus aureus 43300, Enterococcus faecalis 29212, and Bacillus subtilis PY79. The minimum inhibition concentration (MIC, μg/mL) of each compound synthesized was tested against four bacterial strains. The inhibition of bacterial growth was monitored using a standard colorimeter at 600 nm using a serial dilution at concentrations 238, 119, 59.5, 29.8, 14.9, 7.44, 3.72, 1.86, 0.93, 0.46 μg/ml. Chloramphenicol was tested as a control, and inhibits bacteria growth (MIC90) at 7.44, 7.44, 4.0, 2.0 μg/mL, respectively, for the four bacterial strains listed in Table 1. In Table 1, the MICs are reported as the concentrations at 50% inhibition of bacteria growth, and N stands for no inhibition.

[2] = test system: Enterococcus faecalis 29212; assay: Antibacterial growth inhibition assay (serial dilution, colorimeter at 600 nm), E. faecalis 29212; details: for MIC, concentration at 50% inhibition of bacteria growth, E. faecalis 29212: 50% growth inhibition, vancomycin susceptible strain, serial dilution 238-0.46 μg/ml
Method: as §1

[3] = test system: Staphylococcus aureus 43300; assay: Antibacterial growth inhibition assay (serial dilution, colorimeter at 600 nm), S. aureus 43300; design: key to MIC, concentration at 50% inhibition of bacteria growth, S. aureus 43300: N stands for no inhibition; details: for MIC, concentration at 50% inhibition of bacteria growth, S. aureus 43300: 50% growth inhibition, methicillin resistant strain, serial dilution 238-0.46 μg/ml
Method: as §1

[4] = test system: Staphylococcus aureus 29213; assay: Antibacterial growth inhibition assay (serial dilution, colorimeter at 600 nm), S. aureus 29213; design: key to MIC, concentration at 50% inhibition of bacteria growth, S. aureus 29213: N stands for no inhibition; details: for MIC, concentration at 50% inhibition of bacteria growth, S. aureus 29213: 50% growth inhibition, methicillin susceptible strain, serial dilution 238-0.46 μg/ml
Method: as §1

| MIC90 ([1]; Bacillus subtilis, B. subtilis PY79, read-out: MIC90 (control)) [µg/mL] | MIC90 ([2]; Enterococcus faecalis, E. faecalis 29212, read-out: MIC90 (control)) [µg/mL] | MIC90 ([3]; Staphylococcus aureus, S. aureus 43300, read-out: MIC90 (control)) [µg/mL] | MIC90 ([4]; Staphylococcus aureus, S. aureus 29213, read-out: MIC90 (control)) [µg/mL] | MIC, concentration at 50% inhibition of bacteria growth, B. subtilis PY79 [1] | MIC, concentration at 50% inhibition of bacteria growth, E. faecalis 29212 [2] [µg/mL] | MIC, concentration at 50% inhibition of bacteria growth, S. aureus 43300 [3] | MIC, concentration at 50% inhibition of bacteria growth, S. aureus 29213 [4] | Compound | antibacterial activity in words ([3]; S. aureus 43300) | antibacterial activity in words ([4]; S. aureus 29213) |
| --- | --- | --- | --- | --- | --- | --- | --- | --- | --- | --- |
| 2 (≈ 6.19 µM) | 4 (≈ 12.4 µM) | 7.44 (≈ 23 µM) | 7.44 (≈ 23 µM) | – | – | – | – | O=C(N[C@H](CO)[C@H](O)c1ccc([N+](=O)[O-])cc1)C(Cl)Cl [Chloramphenicol, reference compound] | – | – |
| – | – | – | – | N | 45.0 | N | N | CCN1CC[C@@H](CN(Cc2ccccc2)Cc2ccc([N+](=O)[O-])cc2)OC1=O [Compound A1] | – | – |
| – | – | – | – | 108 µg/mL | 47.0 | 22.0 µg/mL | 90.0 µg/mL | CCN1CC[C@@H](CN(Cc2ccccc2)Cc2cccc([N+](=O)[O-])c2)OC1=O [Compound A2] | – | – |
| – | – | – | – | 100 µg/mL | 43.0 | 100 µg/mL | 72.0 µg/mL | CCN1CC[C@@H](CN(Cc2ccccc2)Cc2ccccc2[N+](=O)[O-])OC1=O [Compound A3] | – | – |
| – | – | – | – | 10.0 µg/mL | 12.0 | 59.5 µg/mL | 180 µg/mL | CCN1CC[C@@H](CN(Cc2ccccc2)Cc2ccc(C#N)cc2)OC1=O [Compound A4] | – | – |
| – | – | – | – | 238 µg/mL | 45.0 | N | 238 µg/mL | CCN1CC[C@@H](CN(Cc2ccccc2)Cc2cccc(C#N)c2)OC1=O [Compound A5] | – | – |
| – | – | – | – | 160 µg/mL | 33.0 | 180 µg/mL | 130 µg/mL | CCN1CC[C@@H](CN(Cc2ccccc2)Cc2ccccc2C#N)OC1=O [Compound A6] | – | – |
| – | – | – | – | 42.5 µg/mL | 35.0 | 47.0 µg/mL | 64.0 µg/mL | CCN1CC[C@@H](CN(Cc2ccccc2)Cc2ccc(F)cc2)OC1=O [Compound A7] | – | – |
| – | – | – | – | 38.0 µg/mL | 59.5 | 50.5 µg/mL | 45.0 µg/mL | CCN1CC[C@@H](CN(Cc2ccccc2)Cc2ccc(F)cc2F)OC1=O [Compound A8] | – | – |
| – | – | – | – | 77.0 µg/mL | 59.5 | 70.0 µg/mL | 47.0 µg/mL | CCN1CC[C@@H](CN(Cc2ccccc2)Cc2c(F)cccc2F)OC1=O [Compound A9] | – | – |
| – | – | – | – | 43.0 µg/mL | 37.0 | 45.0 µg/mL | 40.0 µg/mL | CCN1CC[C@@H](CN(Cc2ccccc2)Cc2cc(F)cc(F)c2)OC1=O [Compound A10] | – | – |
| – | – | – | – | 29.0 µg/mL | 13.0 | N | 15.0 µg/mL | CCN1CC[C@@H](CN(Cc2ccccc2)Cc2ccc3ccccc3c2)OC1=O [Compound A12] | no activity | promising activity |
